Reference: patent US9951082B2, “Crystal of 6,7-unsaturated-7-carbamoyl morphinan derivative and method for producing the same” (Shionogi & Co., Ltd., priority 2010, dated 2018)
Counter-ions that a name gives are not always drawn.

Tests used:
[1] = Solid stability test of crystal (storage, content by HPLC, appearance); type: physicochemical; design: key to Change of Appearance: when there was no change in appearance, an evaluation was (−); when there was a little change observed, it was (±); conditions: for Survival Rate: vs standard stored at −40° C.; for Change in the appearance / Solid stability, decrease in content: all storage conditions, two or four weeks
Protocol: About 10 mg of crystal was correctly weighed in the 2-mL glass container with a stopper made of polyethylene.
After closing the glass container, it was rolled with parafilm, and stored for two or four weeks at 40° C. or 60° C. The sample stored at 40° C. is called 40° C. with airtight stopper, and the sample saved at 60 C. is called 60° C. with airtight stopper.
Also samples were reserved with the glass container opened at 40° C., relative humidity 89%, or 60° C., for two weeks or four weeks. The sample stored at 40° C. and relative humidity 89% is called 40° C. R.H.89%, and the sample stored at 60° C. is called 60° C. Opened.
Using samples with airtight stopper stored at −40° C. as a standard, the content was measured with the absolute calibration method by the HPLC method under the following conditions:
In addition, when there was no change in appearance, an evaluation was (−), and when there was a little change observed, it was (±).
Column: CAPCELL PAK C18 AQ (3 micrometer 3.0×150 mm)
Column temperature: 50° C.
UV detection wavelength: 231 nm
[A] A mixed solution containing ammonium formate (10 mmol/L) and magnesium chloride (10 mmol/L)

[2] = Confirmatory test for hygroscopicity of crystal (automated water vapor sorption, DVS); type: physicochemical
Protocol: After completion of the drying, relative humidity was continuously changed at intervals of 5% in a range from 0% to 95% and the amount of water vapor adsorption and desorption of the sample was measured with automated water vapor sorption apparatus: DVS Advantage (Surface Measurement Systems).

[3] = 40° C. R.H. 89%, opened, 2 weeks
[4] = 40° C. R.H. 89%, opened, 4 weeks
[5] = 40° C. airtight stopper, 4 weeks
[6] = 60° C. airtight stopper, 2 weeks
[7] = 60° C. airtight stopper, 4 weeks

| SMILES | Change of Appearance [1, 3] | Survival Rate [1, 3] [%] | Change of Appearance [1, 4] | Survival Rate [1, 4] [%] | Change of Appearance [1, 5] | Survival Rate [1, 5] [%] | Change of Appearance ([1]; 60° C. Opened, 2 weeks) | Survival Rate ([1]; 60° C. Opened, 2 weeks) [%] | Change of Appearance ([1]; 60° C. Opened, 4 weeks) | Survival Rate ([1]; 60° C. Opened, 4 weeks) [%] | Change of Appearance [1, 6] | Survival Rate [1, 6] [%] | Change of Appearance [1, 7] | Survival Rate [1, 7] [%] | Change in the appearance [1] | Solid stability, decrease in content [1] | Hygroscopicity (in words) ([2]; 0% to 95% relative humidity at 25° C.) | Amount of the maximum moisture absorption ([2]; range of 0% to 95% of relative humidity at 25° C.) |
| --- | --- | --- | --- | --- | --- | --- | --- | --- | --- | --- | --- | --- | --- | --- | --- | --- | --- | --- |
| CC(C)(NC(=O)C1=C(O)[C@@H]2Oc3c(O)ccc4c3[C@@]23CCN(CC2CC2)[C@H](C4)[C@]3(O)C1)c1nc(-c2ccccc2)no1 [p-toluenesulfonic acid salt (non-solvate)] | − | 99.3 | − | 100.5 | − | 98.0 | − | 100.3 | − | 98.8 | − | 99.9 | − | 99.6 | no change in the appearance | stable | hygroscopicity was little observed | less than 1.2% |
| CC(C)(NC(=O)C1=C(O)[C@@H]2Oc3c(O)ccc4c3[C@@]23CCN(CC2CC2)[C@H](C4)[C@]3(O)C1)c1nc(-c2ccccc2)no1 [p-toluenesulfonic acid salt hydrate (form I)] | − | 101.2 | ± | 98.4 |  |  | − | 100.5 | ± | 98.5 | − | 100.8 | ± | 99.2 | no change in the appearance | stable |  |  |
| CC(C)(NC(=O)C1=C(O)[C@@H]2Oc3c(O)ccc4c3[C@@]23CCN(CC2CC2)[C@H](C4)[C@]3(O)C1)c1nc(-c2ccccc2)no1 [p-toluenesulfonic acid salt hydrate (form II)] | − | 100.9 | ± | 100.1 |  |  | − | 100.7 | ± | 100.4 | − | 102.0 | ± | 100.6 | no change in the appearance | stable |  |  |
